ChEMBL document CHEMBL1143191, “The synthesis and biological evaluation of a range of novel functionalized benzopyrans as potential potassium channel activators” (2008)

What was measured:
Assay type in all cases: functional, Thorax
[1] = test system: Thoracic; experiment: Vasorelaxation activity against phenylephrine-stimulated contraction in rat thoracic tissue at 10 uM; design: scale not given: the % may be the effect or the level left
[2] = test system: Thoracic; experiment: Vasorelaxation activity against phenylephrine-stimulated contraction in rat thoracic tissue at 1 uM; design: scale not given: the % may be the effect or the level left
[3] = test system: Thoracic; experiment: Vasorelaxation activity against phenylephrine-stimulated contraction in rat thoracic tissue assessed as time taken for relaxation at 10 uM
[4] = test system: Thoracic; experiment: Vasorelaxation activity against phenylephrine-stimulated contraction in rat thoracic tissue at 40 uM; design: scale not given: the % may be the effect or the level left
[5] = test system: Thoracic; experiment: Vasorelaxation activity against phenylephrine-stimulated contraction in rat thoracic tissue at 20 uM in presence of glibenclamide; design: scale not given: the % may be the effect or the level left
[6] = test system: Thoracic; experiment: Vasorelaxation activity against phenylephrine-stimulated contraction in rat thoracic tissue assessed as time taken for relaxation at 40 uM

Row | Compound | Activity [1] [%] | Activity [2] [%] | Time [3] [min] | Activity [4] [%] | Activity [5] [%] | Time [6] [min]
1 | CC1(C)Oc2ccc(C#N)cc2[C@@H](N2CCCC2=O)[C@@H]1O [CROMAKALIM] | 72 | 56 | – | – | – | –
2 | CC(C)(F)[C@@H]1COc2ccc([N+](=O)[O-])cc2C1C#Cc1ccccc1 (single isomer, unassigned) | 43 | – | 40 | 88 | 30 | 30
3 | CC(C)(F)[C@@H]1COc2c(F)cccc2C1C#Cc1ccccc1 (single isomer, unassigned) | 28 | – | 43 | 92 | 30 | 21
4 | CC(C)(F)[C@@H]1COc2c(F)cc(F)cc2C1C#Cc1ccccc1 (single isomer, unassigned) | 20 | – | 41 | 65 | – | 24
5 | CC(C)(F)[C@@H]1COc2ccc(F)cc2C1C#Cc1ccccc1 (single isomer, unassigned) | 36 | – | 55 | 83 | 44 | 33
